Test results as given in patent publication US20160257697A1, “THIOPHENE-SUBSTITUTED TETRACYCLIC COMPOUNDS AND METHODS OFUSE THEREOF FOR THE TREATMENT OF VIRAL DISEASES” (priority 2013, published 2016).
Read-outs that look alike come from different tables or passages of the source.

What was measured:
Test in all cases: microbe, parasite or virus in culture
Assay type in all cases: cell-based, Hepatitis C virus (HCV)
Settings in all cases: Replicon Assay A
HCV replicon 1AY93H = tested on: HCV replicon 1AY93H
Protocol: (§1) To measure cell-based anti-HCV activity of compounds of the present invention, two complimentary assays were employed using various replicons. In the first assay (“Replicon Assay A”), replicon cells were seeded at 2000 cells/well in 384-well 384-well flat bottom tissue culture treated clear bottom plate (Corning 3707) in the presence of the test compound. […] The final concentration of DMSO was 0.5%. Fetal bovine serum was 5%, in the assay media. Cells were harvested on day 3 by removing media and washing the cells with a suitable wash buffer. The cells are lysed with the addition of 1× Qiagen lysis buffer (Cat #1062731). The replicon RNA level was measured using real time PCR (TaqMan® EZ RT-PCR, Applied Biosystems 403028) with the following primers and probes: […]
(§2) Cyclophilin RNA was used as endogenous control and was amplified in the same reaction as NS5B (multiplex PCR). The real-time RT-PCR reactions were run on ABI PRISM 7900HT Sequence Detection System using the following program: 50° C. for 2 minutes, 60° C. for 30 minutes, 95° C. for 5 minutes, 40 cycles of 94° C. for 20 sec, 55° C. for 1 minutes.
(§3) The amount of HCV replicon RNA per cell is quantified using a linear regression curve for a known nanogram (ng) amount of HCV replicon total RNA. This is established by plotting the Cycle Threshold values (Ct) from the Neo probe and primer set versus the log (ng) for each HCV replicon total RNA standard. The amount of HCV RNA for each replicon sample is calculated by taking the sample's Ct value, minus the line intercept, divided by the slope of the line. Similarly, the amount of Cyclophilin mRNA per cell is also quantified using a linear regression curve for a known nanogram (ng) amount of HCV replicon total RNA. Again, this is established by plotting the Cycle Threshold values (Ct) from the Cyclophilin probe and primer set versus the log (ng) for each HCV replicon total RNA standard.
(§4) Data for replicons 1A, 1AY93H and 2B were obtained using Replicon Assay A and data for replicons 1AQ30D and 1B were obtained using Replicon Assay B.

HCV replicon 2B = tested on: HCV replicon 2B
Protocol: as §1, §2, §3, §4

HCV replicon 1A = tested on: HCV replicon 1A
Protocol: as §1, §2, §3, §4

[1] = Hepatitis C virus, read-out: 1A Y93H IC50 (nM), replicon 1AY93H
[2] = Hepatitis C virus, read-out: 2B IC50 (nM), replicon 2B
[3] = read-out: 2B IC50, HCV replicon 2B
[4] = Hepatitis C virus, HCV replicon 1A
[5] = read-out: 1A Y93H IC50, replicon 1AY93H
[6] = read-out: 1A Y93H IC50, HCV replicon 1A Y93H

## COC(=O)N[C@H](C(=O)N1CCC[C@H]1c1ncc(-c2cc(F)c3c(c2)OC(c2ccc(CCC4CC4)s2)n2c-3cc3cc(-c4cnc([C@@H]5CCCN5C(=O)[C@@H](NC(=O)OC)C(C)C)[nH]4)ccc32)[nH]1)C(C)C (single isomer, unassigned) [Compound 91]
HCV replicon 1AY93H; [1]
  IC50: 0.28 nM
HCV replicon 2B; [2]
  IC50: 3.14 nM

## COC(=O)NC(C(=O)N1[C@@H]2C[C@@H]2C[C@H]1c1ncc(-c2ccc3c(c2)cc2n3C(c3ccc(C(C)C)s3)Oc3cc(-c4cnc([C@@H]5CCCN5C(=O)[C@@H](NC(=O)OC)C(C)C)[nH]4)cc(F)c3-2)[nH]1)C1C[C@@H](C)O[C@@H](C)C1 (single isomer, unassigned) [Compound 283]
HCV replicon 1AY93H; [1]
  IC50: 0.192 nM
HCV replicon 2B; [2]
  IC50: 0.68 nM

## COC(=O)NC(C(=O)N1[C@@H]2C[C@@H]2C[C@H]1c1ncc(-c2ccc3c(c2)cc2n3C(c3ccc(C(F)F)s3)Oc3cc(-c4cnc([C@@H]5CCCN5C(=O)[C@@H](NC(=O)OC)C(C)C)[nH]4)cc(F)c3-2)[nH]1)C1C[C@@H](C)O[C@@H](C)C1 (single isomer, unassigned) [Compound 286]
HCV replicon 1A; Hepatitis C virus, replicon 1A
  IC50: 0.001 nM
HCV replicon 2B; read-out: 2B IC50, replicon 2B
  IC50: 0.018 nM

## COC(=O)NC(C(=O)N1CCC[C@H]1c1ncc(-c2ccc3c(c2)cc2n3C(c3ccc(C4CC4)s3)Oc3cc(-c4cnc([C@@H]5CCCN5C(=O)[C@@H](NC(=O)OC)C(C)C)[nH]4)cc(F)c3-2)[nH]1)C1CCOC2(CC2)C1 (single isomer, unassigned) [Compound 177]
HCV replicon 1A; replicon 1A
  IC50: 0.0014 nM
HCV replicon 2B; read-out: 2B IC50, replicon 2B
  IC50: 0.016 nM

## COC(=O)N[C@H](C(=O)N1CCC[C@H]1c1ncc(-c2cc(F)c3c(c2)OC(c2ccc(C4CC4(F)F)s2)n2c-3cc3cc(-c4cnc([C@@H]5CCCN5C(=O)[C@@H](NC(=O)OC)C(C)C)[nH]4)ccc32)[nH]1)C(C)C (single isomer, unassigned) [Compound 118]
HCV replicon 1A; Hepatitis C virus, replicon 1A
  IC50: 0.0012 nM
HCV replicon 2B; read-out: 2B IC50, replicon 2B
  IC50: 0.97 nM

## COC(=O)NC(C(=O)N1CCC[C@H]1c1ncc(-c2ccc3c(c2)cc2n3C(c3ccc(C4CC4)s3)Oc3cc(-c4cnc([C@@H]5CCCN5C(=O)[C@@H](NC(=O)OC)C(C)C)[nH]4)cc(F)c3-2)[nH]1)C1CCOC2(CC2)C1 (single isomer, unassigned) [Compound 178]
HCV replicon 1A; replicon 1A
  IC50: 0.0017 nM
HCV replicon 2B; read-out: 2B IC50, replicon 2B
  IC50: 3.4 nM

## COCc1ccc(C2Oc3cc(-c4cnc([C@@H]5CCCN5C(=O)[C@@H](NC(=O)OC)C(C)C)[nH]4)cc(F)c3-c3cc4cc(-c5c[nH]c([C@@H]6CCCN6C(=O)[C@@H](NC(=O)OC)C(C)C)n5)ccc4n32)s1 (single isomer, unassigned) [Compound 512]
HCV replicon 1A; HCV replicon 1A
  IC50: 0.00282 nM
HCV replicon 2B; [3]
  IC50: 0.15 nM

## COC(=O)NC(C(=O)N1CCC[C@H]1c1ncc(-c2ccc3c(c2)cc2n3C(c3ccc(C4CC4)s3)Oc3cc(-c4cnc([C@@H]5CCCN5C(=O)[C@@H](NC(=O)OC)C(C)C)[nH]4)cc(F)c3-2)[nH]1)C1CCOC2(CC2)C1 (single isomer, unassigned) [Compound 179]
HCV replicon 1A; replicon 1A
  IC50: 0.0012 nM
HCV replicon 2B; read-out: 2B IC50, replicon 2B
  IC50: 4.63 nM

## COC(=O)N[C@H](C(=O)N1CCC[C@H]1c1ncc(-c2cc(F)c3c(c2)OC(c2ccc(C4CCCCC4)s2)n2c-3cc3cc(-c4cnc([C@@H]5CCCN5C(=O)[C@@H](NC(=O)OC)C(C)C)[nH]4)ccc32)[nH]1)C(C)C (single isomer, unassigned) [Compound 528]
HCV replicon 1A; [4]
  IC50: 0.00883 nM
HCV replicon 2B; [3]
  IC50: 8.81 nM

## COC(=O)N[C@H](C(=O)N1CCC[C@H]1c1ncc(-c2cc(F)c3c(c2)OC(c2ccc(C(C)CF)s2)n2c-3cc3cc(-c4cnc([C@@H]5CCCN5C(=O)[C@@H](NC(=O)OC)C(C)C)[nH]4)ccc32)[nH]1)C(C)C (single isomer, unassigned) [Compound 333]
HCV replicon 1A; replicon 1A
  IC50: 0.001 nM
HCV replicon 2B; read-out: 2B IC50, replicon 2B
  IC50: 0.0314 nM

## COC(=O)NC(C(=O)N1CCC[C@H]1c1ncc(-c2ccc3c(c2)cc2n3C(c3ccc(C(F)F)s3)Oc3cc(-c4cnc([C@@H]5CCCN5C(=O)[C@@H](NC(=O)OC)C(C)C)[nH]4)cc(F)c3-2)[nH]1)C1C[C@@H](C)O[C@@H](C)C1 (single isomer, unassigned) [Compound 265]
HCV replicon 1AY93H; [5]
  IC50: 0.16 nM
HCV replicon 2B; read-out: 2B IC50, replicon 2B
  IC50: 0.25 nM

## COC(=O)N[C@H](C(=O)N1CCC[C@H]1c1ncc(-c2cc(F)c3c(c2)OC(c2ccc(C(C)C(F)(F)F)s2)n2c-3cc3cc(-c4cnc([C@@H]5CCCN5C(=O)[C@@H](NC(=O)OC)C(C)C)[nH]4)ccc32)[nH]1)C(C)C (single isomer, unassigned) [Compound 133]
HCV replicon 1A; replicon 1A
  IC50: 0.002 nM
HCV replicon 2B; read-out: 2B IC50, replicon 2B
  IC50: 0.15 nM

## COC(=O)NC(C(=O)N1[C@@H]2C[C@@H]2C[C@H]1c1ncc(-c2ccc3c(c2)cc2n3C(c3cc4ccccc4s3)Oc3cc(-c4cnc([C@@H]5CCCN5C(=O)[C@@H](NC(=O)OC)C(C)C)[nH]4)cc(F)c3-2)[nH]1)C1C[C@@H](C)O[C@@H](C)C1 (single isomer, unassigned) [Compound 647]
HCV replicon 1A; [4]
  IC50: 0.0026 nM
HCV replicon 2B; [3]
  IC50: 0.153 nM

## COC(=O)N[C@H](C(=O)N1CCC[C@H]1c1ncc(-c2cc(F)c3c(c2)OC(c2scc4c2OCCO4)n2c-3cc3cc(-c4cnc([C@@H]5CCCN5C(=O)[C@@H](NC(=O)OC)C(C)C)[nH]4)ccc32)[nH]1)C(C)C (single isomer, unassigned) [Compound 525]
HCV replicon 1AY93H; [6]
  IC50: 15.1 nM
HCV replicon 2B; [3]
  IC50: 3.14 nM

## COC(=O)NC(C(=O)N1CCC[C@H]1c1ncc(-c2ccc3c(c2)cc2n3C(c3ccc(C4CC4)s3)Oc3cc(-c4cnc([C@@H]5CCCN5C(=O)[C@@H](NC(=O)OC)C(C)C)[nH]4)cc(F)c3-2)[nH]1)C1CCOC2(CC2)C1 (single isomer, unassigned) [Compound 176]
HCV replicon 1A; Hepatitis C virus, replicon 1A
  IC50: 0.0011 nM
HCV replicon 2B; read-out: 2B IC50, replicon 2B
  IC50: 0.046 nM

## COC(=O)N[C@H](C(=O)N1CCC[C@H]1c1ncc(-c2cc(F)c3c(c2)OC(c2cc(C)c(C)s2)n2c-3cc3cc(-c4cnc([C@@H]5C[C@H]6C[C@H]6N5C(=O)[C@@H](NC(=O)OC)C(C)C)[nH]4)ccc32)[nH]1)C(C)C (single isomer, unassigned) [Compound 507]
HCV replicon 1AY93H; [6]
  IC50: 0.0896 nM
HCV replicon 2B; [3]
  IC50: 1.88 nM

## COC(=O)N[C@H](C(=O)C1CCC[C@H]1c1ncc(-c2ccc3c(c2)cc2n3C(c3ccc(C(F)(F)F)s3)Oc3cc(-c4cnc([C@@H]5CCCN5C(=O)[C@@H](NC(=O)OC)C(C)C)[nH]4)cc(F)c3-2)[nH]1)C(C)C (single isomer, unassigned) [Compound 90]
HCV replicon 1AY93H; [5]
  IC50: 0.74 nM
HCV replicon 2B; read-out: 2B IC50, replicon 2B
  IC50: 1.91 nM

## [2H]C(C)(C)C(NC(=O)OC)C(=O)N1CCC[C@H]1c1ncc(-c2cc(F)c3c(c2)OC(c2ccc(C4CC4)s2)n2c-3cc3cc(-c4cnc([C@@H]5CCCN5C(=O)[C@@H](NC(=O)OC)C(C)C)[nH]4)ccc32)[nH]1 (single isomer, unassigned) [Compound 30]
HCV replicon 1A; replicon 1A
  IC50: 0.0513 nM
HCV replicon 2B; read-out: 2B IC50, replicon 2B
  IC50: 33.3 nM

## COC(=O)NC(C(=O)N1CCC[C@H]1c1ncc(-c2ccc3c(c2)cc2n3C(c3ccc(C4CC4)s3)Oc3cc(-c4cnc([C@@H]5CCCN5C(=O)[C@@H](NC(=O)OC)C(C)C)[nH]4)cc(F)c3-2)[nH]1)C1CCO[C@@H](C)C1 (single isomer, unassigned) [Compound 401]
HCV replicon 1A; replicon 1A
  IC50: 0.0018 nM
HCV replicon 2B; read-out: 2B IC50, replicon 2B
  IC50: 0.0064 nM

## COC(=O)NC(C(=O)N1CCC[C@H]1c1ncc(-c2cc(F)c3c(c2)OC(c2ccc(C4CC4)s2)n2c-3cc3cc(-c4cnc([C@@H]5CCCN5C(=O)[C@@H](NC(=O)OC)C(C)C)[nH]4)ccc32)[nH]1)C(C)(C)F (single isomer, unassigned) [Compound 68]
HCV replicon 1AY93H; [5]
  IC50: 0.12 nM
HCV replicon 2B; read-out: 2B IC50, replicon 2B
  IC50: 1.12 nM

## COC(=O)N[C@H](C(=O)N1CCC[C@H]1c1ncc(-c2cc(F)c3c(c2)OC(c2cc(C)c(C)s2)n2c-3cc3cc(-c4cnc([C@@H]5C[C@H]6C[C@H]6N5C(=O)[C@@H](NC(=O)OC)C(C)C)[nH]4)ccc32)[nH]1)C(C)C (single isomer, unassigned) [Compound 509]
HCV replicon 1AY93H; [6]
  IC50: 6.12 nM
HCV replicon 2B; [3]
  IC50: 6.82 nM

## COC(=O)N[C@H](C(=O)N1CCC[C@H]1c1ncc(-c2cc(F)c3c(c2)OC(c2ccc(C(CF)CF)s2)n2c-3cc3cc(-c4cnc([C@@H]5CCCN5C(=O)[C@@H](NC(=O)OC)C(C)C)[nH]4)ccc32)[nH]1)C(C)C (single isomer, unassigned) [Compound 121]
HCV replicon 1A; replicon 1A
  IC50: 0.0012 nM
HCV replicon 2B; read-out: 2B IC50, replicon 2B
  IC50: 0.17 nM

## COCc1ccc(C2Oc3cc(-c4cnc([C@@H]5CCCN5C(=O)[C@@H](NC(=O)OC)C(C)C)[nH]4)cc(F)c3-c3cc4cc(-c5cnc([C@@H]6CCCN6C(=O)[C@@H](NC(=O)OC)[C@@H]6C[C@@H](C)O[C@@H](C)C6)[nH]5)ccc4n32)s1 (single isomer, unassigned) [Compound 534]
HCV replicon 1A; HCV replicon 1A
  IC50: 0.00692 nM
HCV replicon 2B; [3]
  IC50: 0.02 nM
